Experimental data from patent US20240398805A1, “QUINAZOLINE DERIVED COMPOUNDS AS EGFR INHIBITORS AND THEIR USES THEREOF” (ACCUTAR BIOTECHNOLOGY INC., priority 2021, published 2024).

Tests used:
Format in all cases: cell-based
HCC827 cells = assay: Cell growth inhibition (CellTiter-Glo, 3 days) in HCC827; conditions: Homo sapiens, 72 h, 3 days after administration
How it was run: (§1)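 HCC827 cells in RPMI/10% FBS and A431 cells in DMEM/10% FBS were seeded at 5000 cells/well and left overnight. Compound was then added over a concentration range for 3 days of incubation, and viability was read by CellTiter-Glo luminescence.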

A431 cells = assay: Cell growth inhibition (CellTiter-Glo, 3 days) in A431; conditions: Homo sapiens, A-431, 72 h, 3 days after administration
How it was run: as §1

[1] = test system: HCC827-ASV cells (human EGFR exon 20 insertion mutant A769_D770insASV); assay: Cell growth inhibition (CellTiter-Glo, 3 days) in HCC827-ASV; conditions: 72 h, 3 days after administration
How it was run: (§2)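 Growth inhibition used a CellTiter-Glo luminescence read-out after 3 days of compound exposure at various concentrations. Cells were plated the day before at 5000/well in RPMI plus 10% FBS. The lines are HCC827 transduced by lentivirus with codon-optimized EGFR ASV or ERBB2 YVMA exon 20 insertions.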

[2] = test system: HCC827-YVMA cells (human ERBB2 exon20 insertion mutant A775_G776ins YVMA); assay: Cell growth inhibition (CellTiter-Glo, 3 days) in HCC827-YVMA; conditions: 72 h, 3 days after administration
How it was run: as §2

[3] = test system: HCC827-SVD cells (human EGFR exon 20 insertion mutant D770_N771 insSVD); assay: Cell growth inhibition (CellTiter-Glo, 3 days) in HCC827-SVD; conditions: 72 h, 3 days after administration
How it was run: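 HCC827 cells carrying lentiviral codon-optimized EGFR D770_N771 insSVD, with endogenous EGFR knocked out by CRISPR (single clone), seeded at 5000 cells/well in RPMI with 10% FBS. Viability read by CellTiter-Glo luminescence.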

Row | SMILES | GI50 (HCC827 cells) | GI50 (A431 cells) | GI50 [1] | GI50 [2] | GI50 [3]
1 | C=CC(=O)N1CCC(Nc2cc3c(Nc4ccc(Oc5ccnc(N6CCC(N)CC6)c5)cc4F)ncnc3cc2OC)CC1 [Example 178, 1-(4-((4-((4-((2-(4-aminopiperidin-1-yl)pyridin-4-yl)oxy)-2-fluorophenyl)amino)-7-methoxyquinazolin-6-yl)amino)piperidin-1-yl)prop-2-en-1-one] | ≥ 1000 nM | ≥ 1000 nM | 300 to 600 nM | 300 to 600 nM | 300 to 600 nM
2 | C=CC(=O)N1CCC(Nc2cc3c(Nc4ccc(Oc5ccnc(N6CCN(C)[C@@H](C)C6)c5)cc4F)ncnc3cc2OC)CC1 [Example 179, (S)-1-(4-((4-((4-((2-(3,4-dimethylpiperazin-1-yl)pyridin-4-yl)oxy)-2-fluorophenyl)amino)-7-methoxyquinazolin-6-yl)amino)piperidin-1-yl)prop-2-en-1-one] | ≥ 1000 nM | ≥ 1000 nM | < 30 nM | 30 to 60 nM | 60 to 100 nM
3 | C=CC(=O)N1CCC(Nc2cc3c(Nc4ccc(Oc5ccnc(N6CCN(C)[C@H](C)C6)c5)cc4F)ncnc3cc2OC)CC1 [Example 180, (R)-1-(4-((4-((4-((2-(3,4-dimethylpiperazin-1-yl)pyridin-4-yl)oxy)-2-fluorophenyl)amino)-7-methoxyquinazolin-6-yl)amino)piperidin-1-yl)prop-2-en-1-one] | ≥ 1000 nM | ≥ 1000 nM | 30 to 60 nM | 30 to 60 nM | 30 to 60 nM
4 | C=CC(=O)N1CCC(Nc2cc3c(Nc4ccc(Oc5ccnc(C(=O)N(C)C)c5)cc4F)ncnc3cc2OC)CC1 [Example 182, 4-(4-((6-((1-acryloylpiperidin-4-yl)amino)-7-methoxyquinazolin-4-yl)amino)-3-fluorophenoxy)-N,N-dimethylpicolinamide] | 600 to 1000 nM | ≥ 1000 nM | 600 to 1000 nM | 300 to 600 nM | 600 to 1000 nM
5 | C=CC(=O)N1CCC(Nc2cc3c(Nc4ccc(Oc5ccnc(NC6COC6)c5)cc4F)ncnc3cc2OC)CC1 [Example 183, 1-(4-((4-((2-fluoro-4-((2-(oxetan-3-ylamino)pyridin-4-yl)oxy)phenyl)amino)-7-methoxyquinazolin-6-yl)amino)piperidin-1-yl)prop-2-en-1-one] | ≥ 1000 nM | ≥ 1000 nM | ≥ 1000 nM | ≥ 1000 nM | ≥ 1000 nM
6 | C=CC(=O)N1CCC(Nc2cc3c(Nc4ccc(Oc5ccnc(NC6CCN(C)CC6)c5)cc4F)ncnc3cc2OC)CC1 [Example 184, 1-(4-((4-((2-fluoro-4-((2-((1-methylpiperidin-4-yl)amino)pyridin-4-yl)oxy)phenyl)amino)-7-methoxyquinazolin-6-yl)amino)piperidin-1-yl)prop-2-en-1-one] | ≥ 1000 nM | ≥ 1000 nM | ≥ 1000 nM | ≥ 1000 nM | ≥ 1000 nM
7 | C=CC(=O)N1CCC(Nc2cc3c(Nc4ccc(Oc5ccnc(C6CCN(C)CC6)c5)cc4F)ncnc3cc2OC)CC1 [Example 186, 1-(4-((4-((2-fluoro-4-((2-(1-methylpiperidin-4-yl)pyridin-4-yl)oxy)phenyl)amino)-7-methoxyquinazolin-6-yl)amino)piperidin-1-yl)prop-2-en-1-one] | 600 to 1000 nM | ≥ 1000 nM | ≥ 1000 nM | ≥ 1000 nM | ≥ 1000 nM
8 | C=CC(=O)N1CCC(Nc2cc3c(Nc4ccc(Oc5ccnc(N6CCN(C(C)C)CC6)c5)cc4F)ncnc3cc2OC)CC1 [Example 187, 1-(4-((4-((2-fluoro-4-((2-(4-isopropylpiperazin-1-yl)pyridin-4-yl)oxy)phenyl)amino)-7-methoxyquinazolin-6-yl)amino)piperidin-1-yl)prop-2-en-1-one] | ≥ 1000 nM | ≥ 1000 nM | 100 to 300 nM | 300 to 600 nM | 100 to 300 nM
9 | C=CC(=O)N1CCC(Nc2cc3c(Nc4ccc(Oc5ccnc(N6C[C@H](OC)[C@H](OC)C6)c5)cc4F)ncnc3cc2OC)CC1 [Example 189, 1-(4-((4-((4-((2-((3R,4S)-3,4-dimethoxypyrrolidin-1-yl)pyridin-4-yl)oxy)-2-fluorophenyl)amino)-7-methoxyquinazolin-6-yl)amino)piperidin-1-yl)prop-2-en-1-one] | 300 to 600 nM | ≥ 1000 nM | < 30 nM | < 30 nM | < 30 nM
10 | C=CC(=O)N1CCC(Nc2cc3c(Nc4ccc(Oc5ccnc(N6CC[C@@H](F)C6)c5)cc4F)ncnc3cc2OC)CC1 [Example 195, (R)-1-(4-((4-((2-fluoro-4-((2-(3-fluoropyrrolidin-1-yl)pyridin-4-yl)oxy)phenyl)amino)-7-methoxyquinazolin-6-yl)amino)piperidin-1-yl)prop-2-en-1-one] | 100 to 300 nM | 600 to 1000 nM | < 30 nM | < 30 nM | < 30 nM
11 | C=CC(=O)N1CCC(Nc2cc3c(Nc4ccc(Oc5ccnc(N6CC7CC7C6)c5)cc4F)ncnc3cc2OC)CC1 (centres unmarked) [Example 199, 1-(4-((4-((4-((2-(3-azabicyclo[3.1.0]hexan-3-yl)pyridin-4-yl)oxy)-2-fluorophenyl)amino)-7-methoxyquinazolin-6-yl)amino)piperidin-1-yl)prop-2-en-1-one] | 100 to 300 nM | 60 to 100 nM | < 30 nM | < 30 nM | < 30 nM

Other lines, results leading:

Row | GI50 (HCC827 cells) | GI50 (A431 cells) | GI50 [1] | GI50 [2] | GI50 [3] | SMILES
12 | 60 to 100 nM | 100 to 300 nM | < 30 nM | 30 to 60 nM | < 30 nM | C=CC(=O)N1CCC(Oc2cc3c(Nc4ccc(Oc5ccnc(N6CC7C(C6)C7(F)F)c5)cc4F)ncnc3cc2OC)CC1 (centres unmarked) [Example 188, 1-(4-((4-((4-((2-(6,6-difluoro-3-azabicyclo[3.1.0]hexan-3-yl)pyridin-4-yl)oxy)-2-fluorophenyl)amino)-7-methoxyquinazolin-6-yl)oxy)piperidin-1-yl)prop-2-en-1-one]
13 | 30 to 60 nM | 300 to 600 nM | < 30 nM | < 30 nM | < 30 nM | C=CC(=O)N1CCC(Nc2cc3c(Nc4ccc(Oc5ccnc(N6C[C@H]7COC[C@H]7C6)c5)cc4F)ncnc3cc2OC)CC1 [Example 190, 1-(4-((4-((2-fluoro-4-((2-((3aR,6aS)-tetrahydro-1H-furo[3,4-c]pyrrol-5(3H)-yl)pyridin-4-yl)oxy)phenyl)amino)-7-methoxyquinazolin-6-yl)amino)piperidin-1-yl)prop-2-en-1-one]
14 | 60 to 100 nM | 100 to 300 nM | < 30 nM | < 30 nM | < 30 nM | C=CC(=O)N1CCC(Nc2cc3c(Nc4ccc(Oc5ccnc(-c6nc(C)ns6)c5)cc4F)ncnc3cc2OC)CC1 [Example 192, 1-(4-((4-((2-fluoro-4-((2-(3-methyl-1,2,4-thiadiazol-5-yl)pyridin-4-yl)oxy)phenyl)amino)-7-methoxyquinazolin-6-yl)amino)piperidin-1-yl)prop-2-en-1-one]
15 | 60 to 100 nM | 300 to 600 nM | < 30 nM | < 30 nM | < 30 nM | C=CC(=O)N1CCC(Nc2cc3c(Nc4ccc(Oc5ccnc(N6CCC(F)(F)C6)c5)cc4F)ncnc3cc2OC)CC1 [Example 194, 1-(4-((4-((4-((2-(3,3-difluoropyrrolidin-1-yl)pyridin-4-yl)oxy)-2-fluorophenyl)amino)-7-methoxyquinazolin-6-yl)amino)piperidin-1-yl)prop-2-en-1-one]
16 | 60 to 100 nM | 100 to 300 nM | < 30 nM | < 30 nM | < 30 nM | C=CC(=O)N1CCC(Nc2cc3c(Nc4ccc(Oc5ccnc(N6CC[C@H](F)C6)c5)cc4F)ncnc3cc2OC)CC1 [Example 196, (S)-1-(4-((4-((2-fluoro-4-((2-(3-fluoropyrrolidin-1-yl)pyridin-4-yl)oxy)phenyl)amino)-7-methoxyquinazolin-6-yl)amino)piperidin-1-yl)prop-2-en-1-one]
17 | 60 to 100 nM | 300 to 600 nM | < 30 nM | < 30 nM | < 30 nM | C=CC(=O)N1CCC(Nc2cc3c(Nc4ccc(Oc5ccnc(N6CC[C@@H](C)C6)c5)cc4F)ncnc3cc2OC)CC1 [Example 197, (R)-1-(4-((4-((2-fluoro-4-((2-(3-methylpyrrolidin-1-yl)pyridin-4-yl)oxy)phenyl)amino)-7-methoxyquinazolin-6-yl)amino)piperidin-1-yl)prop-2-en-1-one]
18 | 30 to 60 nM | 600 to 1000 nM | < 30 nM | < 30 nM | < 30 nM | C=CC(=O)N1CCC(Nc2cc3c(Nc4ccc(Oc5ccnc(N6CC[C@H](C)C6)c5)cc4F)ncnc3cc2OC)CC1 [Example 198, (S)-1-(4-((4-((2-fluoro-4-((2-(3-methylpyrrolidin-1-yl)pyridin-4-yl)oxy)phenyl)amino)-7-methoxyquinazolin-6-yl)amino)piperidin-1-yl)prop-2-en-1-one]
19 | 60 to 100 nM | ≥ 1000 nM | 30 to 60 nM | 60 to 100 nM | 30 to 60 nM | C=CC(=O)N1CCC(Nc2cc3c(Nc4ccc(Oc5ccnc(N6CCC(C)(C#N)CC6)c5)cc4F)ncnc3cc2OC)CC1 [Example 200, 1-(4-(4-((6-((1-acryloylpiperidin-4-yl)amino)-7-methoxyquinazolin-4-yl)amino)-3-fluorophenoxy)pyridin-2-yl)-4-methylpiperidine-4-carbonitrile]
